Results from patent US6028092A, “Salts of N-(4-Oxo-2-(1H-tetrazoyl-5-yl)-4H-1-benzopyran-8-yl)-4-(4-phenylbutoxy)b enzamide” (SmithKline Beecham p.l.c, priority 1995, dated 2000).
Converted amounts (≈) assume the structure as drawn. Read-outs that look alike come from different tables or passages of the source.

Columns and labels:
[1] = in vivo
[2] = Solubility of Compound 1 salts in water, ethanol and PEG 400; assay type: physicochemical
[3] = rat, in vivo, po
[4] = In-situ solubilisation: solubility of Compound 1 in 50% acetate solution (0.1M) / 50% ethanol; assay type: physicochemical
Method: Although the salts of Compound 1 are freely soluble in solvents such as ethanol further improvements have been observed when the salts are prepared in situ.
Solubility of Compound 1 in 50% Acetate Solution (0.1M) and 50%
(§1) In the presence of excess acetate the salts formed in situ are freely soluble even in an aqueous alcoholic medium with a water content of 50%. With lower water contents or in the absence of water the solubility can be improved further. For example when PEG 200 (30 mL) sodium acetate (2.5 g) and Compound 1 (7.4 g) were triturated in a mortar and pestle the sodium salt of Compound 1 formed in-situ was solubilised to a concentration greater than 200 g/l.

[5] = Solubility of Compound 1 in 50% solvent systems/50% sodium phosphate (pH7) at different molarities; assay type: physicochemical
Method: The scope of in-situ solubilisation in terms of solvent type and buffer concentration can be seen in Table 4. In these experiments the sodium salt of Compound 1 was prepared through the presence of varying concentrations of sodium phosphate buffer solution with 50% of the test solvent.
Solubility of Compound 1 in 50% solvent systems/50% sodium
phosphate (pH7) at different molarities
No value was obtained for those N/T samples because the solvents were immiscible with the buffer solution at those concentrations.

[6] = Solubility of Compound 1 in 50% 0.1M salt solution (pH7)/50% absolute alcohol; assay type: physicochemical
From the text: Solubility of Compound 1 in 50% 0.1M salt solution (pH7)/50%

[7] = In-situ solubilisation of sodium salt of Compound 1 in PEG 200 by trituration with sodium acetate; assay type: physicochemical; details: organic solvent or mixture; PEG 200 (30 mL), sodium acetate (2.5 g), Compound 1 (7.4 g); read-out: concentration solubilised in-situ
Method: as §1

With `O=C(Nc1cccc2c(=O)cc(-c3nnn[nH]3)oc12)c1ccc(OCCCCc2ccccc2)cc1` [Ammonium] the bioavailability ([1]; rat, in vivo, po, 20 mg/kg, absolute bioavailability) was about 7%, the “Solubility in PEG 400” value ([2]; PEG 400) was over 10000 µg/mL and the Solubility in ethanol [2] was 9330 µg/mL. For the same compound, the Solubility in water ([2]; water) was 280 µg/mL, the “absorption, in words” value [3] was “reasonably well absorbed” and the “increase of absolute bioavailability relative to the parent acid” value [3] was “approximately tenfold”. The “AUC)-t or infinity” value ([3]; 20 mg/kg) was 81490.5 ± 23670.3 µg·min/mL, the BA ([3]; 20 mg/kg) was 7.15 ± 2.08% and the CMAX ([3]; 20 mg/kg) was 548.5 ± 165.7 ng/mL. For the same compound, the TMAX ([3]; 20 mg/kg) was 53.1 ± 29.8 min, the “AUC)-t or infinity” value ([3]; 80 mg/kg) was 66722.9 ± 16472.6 and the BA ([3]; 80 mg/kg) was 1.46 ± 0.36%. For the same compound, the CMAX ([3]; 80 mg/kg) was 264.5 ± 64.06 ng/mL and the TMAX ([3]; 80 mg/kg) was 150.5 ± 34.1 min.

In the case of `O=C(Nc1cccc2c(=O)cc(-c3nnn[nH]3)oc12)c1ccc(OCCCCc2ccccc2)cc1` [Calcium], the “Solubility in PEG 400” value ([2]; PEG 400) is reported as 8420 µg/mL and the Solubility in ethanol [2] is reported as 360 µg/mL.

With `O=C(Nc1cccc2c(=O)cc(-c3nnn[nH]3)oc12)c1ccc(OCCCCc2ccccc2)cc1` [Compound 1, N-[4-Oxo-2-(1H-tetrazol-5-yl)-4H-1-benzopyran-8-yl]-4-(4-phenylbutoxy)benzamide] the solubility ([4]; 0.1m ammonium acetate/ethanol 50:50, organic solvent or mixture, ammonium acetate 0.1M 50% / ethanol 50%) was 11500 µg/mL (≈ 23.9 mM), the solubility ([4]; 0.1m calcium acetate/ethanol 50:50, organic solvent or mixture, calcium acetate 0.1M 50% / ethanol 50%) was 400 µg/mL (≈ 0.831 mM) and the solubility ([4]; 0.1m potassium acetate/ethanol 50:50, organic solvent or mixture, potassium acetate 0.1M 50% / ethanol 50%) was 12200 µg/mL (≈ 25.3 mM). The solubility ([4]; 0.1m sodium acetate/ethanol 50:50, organic solvent or mixture, sodium acetate 0.1M 50% / ethanol 50%) was 11000 µg/mL (≈ 22.8 mM), the solubility ([5]; 50% ethanol/0.1m sodium phosphate, pH 7, organic solvent or mixture, 50% ethanol / 50% sodium phosphate pH7, 0.1M) was 16200 µg/mL (≈ 33.6 mM) and the solubility ([5]; 50% glycerol/0.1m sodium phosphate, pH 7, organic solvent or mixture, 50% glycerol / 50% sodium phosphate pH7, 0.1M) was 200 µg/mL (≈ 0.415 mM). The solubility ([5]; 50% glycerol/0.25m sodium phosphate, pH 7, organic solvent or mixture, 50% glycerol / 50% sodium phosphate pH7, 0.25M) was 50 µg/mL (≈ 0.104 mM), the solubility ([5]; 50% glycerol/0.5m sodium phosphate, pH 7, organic solvent or mixture, 50% glycerol / 50% sodium phosphate pH7, 0.5M) was 40 µg/mL (≈ 0.0831 mM) and the solubility ([5]; 50% glycofurol/0.1m sodium phosphate, pH 7, 50% glycofurol / 50% sodium phosphate pH7, 0.1M) was 19500 µg/mL (≈ 40.5 mM). It also gave a solubility ([5]; 50% methanol/0.1m sodium phosphate, pH 7, organic solvent or mixture, 50% methanol / 50% sodium phosphate pH7, 0.1M) of 2200 µg/mL (≈ 4.57 mM), a solubility ([5]; 50% methanol/0.25m sodium phosphate, pH 7, organic solvent or mixture, 50% methanol / 50% sodium phosphate pH7, 0.25M) of 1100 µg/mL (≈ 2.28 mM) and a solubility ([5]; 50% methanol/0.5m sodium phosphate, pH 7, organic solvent or mixture, 50% methanol / 50% sodium phosphate pH7, 0.5M) of 900 µg/mL (≈ 1.87 mM). It also gave a solubility ([5]; 50% n-propanol/0.1m sodium phosphate, pH 7, organic solvent or mixture, 50% n-propanol / 50% sodium phosphate pH7, 0.1M) of 18000 µg/mL (≈ 37.4 mM), a solubility ([5]; 50% n-propanol/0.25m sodium phosphate, pH 7, organic solvent or mixture, 50% n-propanol / 50% sodium phosphate pH7, 0.25M) of 43100 µg/mL (≈ 89.5 mM) and a solubility ([5]; 50% n-propanol/0.5m sodium phosphate, pH 7, organic solvent or mixture, 50% n-propanol / 50% sodium phosphate pH7, 0.5M) of 56300 µg/mL (≈ 117 mM). For the same compound, the solubility ([5]; 50% peg 400/0.1m sodium phosphate, pH 7, organic solvent or mixture, 50% PEG 400 / 50% sodium phosphate pH7, 0.1M) was 20500 µg/mL (≈ 42.6 mM), the solubility ([5]; 50% peg 400/0.25m sodium phosphate, pH 7, organic solvent or mixture, 50% PEG 400 / 50% sodium phosphate pH7, 0.25M) was 23700 µg/mL (≈ 49.2 mM) and the solubility ([5]; 50% peg 400/0.5m sodium phosphate, pH 7, organic solvent or mixture, 50% PEG 400 / 50% sodium phosphate pH7, 0.5M) was 26600 µg/mL (≈ 55.2 mM). The solubility ([5]; 50% propylene glycol/0.1m sodium phosphate, pH 7, organic solvent or mixture, 50% propylene glycol / 50% sodium phosphate pH7, 0.1M) was 1700 µg/mL (≈ 3.53 mM), the solubility ([5]; 50% propylene glycol/0.25m sodium phosphate, pH 7, organic solvent or mixture, 50% propylene glycol / 50% sodium phosphate pH7, 0.25M) was 700 µg/mL (≈ 1.45 mM) and the solubility ([5]; 50% propylene glycol/0.5m sodium phosphate, pH 7, organic solvent or mixture, 50% propylene glycol / 50% sodium phosphate pH7, 0.5M) was 500 µg/mL (≈ 1.04 mM). For the same compound, the solubility ([5]; 50% thf/0.1m sodium phosphate, pH 7, organic solvent or mixture, 50% THF / 50% sodium phosphate pH7, 0.1M) was 22300 µg/mL (≈ 46.3 mM), the solubility ([5]; 50% thf/0.25m sodium phosphate, pH 7, organic solvent or mixture, 50% THF / 50% sodium phosphate pH7, 0.25M) was 49300 µg/mL (≈ 102 mM) and the solubility ([5]; 50% thf/0.5m sodium phosphate, pH 7, organic solvent or mixture, 50% THF / 50% sodium phosphate pH7, 0.5M) was 101000 µg/mL (≈ 210 mM). For the same compound, the half-life ([1]; rat, in vivo, iv, 3 mg/kg) was 23.2 ± 28.4 min, the AUC ([1]; rat, in vivo, iv, 3 mg/kg, AUC)-t or infinity) was 2850 µg·h/mL and the AUC ([1]; rat, in vivo, po, 80 mg/kg, AUC)-t or infinity) was 607 µg·h/mL. For the same compound, the bioavailability ([1]; rat, in vivo, po, 80 mg/kg, BA) was 0.8 ± 0.16%, the CMAX ([1]; rat, in vivo, po, 80 mg/kg, CMAX) was 207 ± 57.2 ng/mL and the solubility ([2]; water, aqueous, free acid, read-out: aqueous solubility of Compound 1 free acid) was under 10 µg/mL. It also gave a TMAX ([3]; 80 mg/kg) of 22.6 ± 14.9 min.

For `O=C(Nc1cccc2c(=O)cc(-c3nnn[nH]3)oc12)c1ccc(OCCCCc2ccccc2)cc1` [Ethylenediamine], the solubility [6] was 1700 µg/mL.

In the case of `O=C(Nc1cccc2c(=O)cc(-c3nnn[nH]3)oc12)c1ccc(OCCCCc2ccccc2)cc1` [Meglumine], the TMAX ([1]; rat, in vivo, po, 20 mg/kg, TMAX) is reported as 53.1 min, the “Solubility in PEG 400” value ([2]; PEG 400) is reported as 9200 µg/mL and the Solubility in ethanol [2] is reported as 3060 µg/mL. For the same compound, the Solubility in water ([2]; water) was 340 µg/mL, the “absorption, in words” value [3] was “evidence of enhanced absorption” and the “increase of absolute bioavailability relative to the parent acid” value [3] was “approximately fourfold”. For the same compound, the “AUC)-t or infinity” value ([3]; 20 mg/kg) was 35290.4 ± 11719.1, the BA ([3]; 20 mg/kg) was 3.09 ± 1.03% and the CMAX ([3]; 20 mg/kg) was 207.7 ± 112.2 ng/mL. For the same compound, the “AUC)-t or infinity” value ([3]; 80 mg/kg) was 59012.7 ± 17096.3 µg·min/mL, the BA ([3]; 80 mg/kg) was 1.29 ± 0.37% and the CMAX ([3]; 80 mg/kg) was 263.0 ± 139.5 ng/mL. For the same compound, the TMAX ([3]; 80 mg/kg) was 97.5 ± 66.2 min.

Work on `O=C(Nc1cccc2c(=O)cc(-c3nnn[nH]3)oc12)c1ccc(OCCCCc2ccccc2)cc1` [Sodium] yielded a Solubility in ethanol [2] of over 10000 µg/mL, a solubility ([2]; peg 400, organic solvent or mixture, PEG 400, read-out: Solubility in PEG 400) of over 10000 µg/mL and a Solubility in water ([2]; water) of 40 µg/mL. For the same compound, the solubility [7] was over 200000 µg/mL.

In the case of `O=C(Nc1cccc2c(=O)cc(-c3nnn[nH]3)oc12)c1ccc(OCCCCc2ccccc2)cc1` [Tris], the solubility ([6]; 50% salt solution/50% ethanol, pH 7, organic solvent or mixture, read-out: Solubility) is reported as 1600 µg/mL.
